According to ChEMBL document CHEMBL5223182, “Inhibition of HIV-1 Protease by a Boronic Acid with High Oxidative Stability” (ACS Med Chem Lett, 2023):

What was measured:
[1] = Oxidative stability of compound in PBS by UV visible spectrophotometer analysis; type: physicochemical; conditions: buffer
[2] = biological target: T1, Human immunodeficiency virus type 1 protease (Human immunodeficiency virus 1, UniProt Q72874); assay: Inhibition of HIV-1 protease by fluorescence assay
[3] = Oxidative stability in sodium phosphate buffer assessed as relative rate constant; type: physicochemical
[4] = Oxidative stability in sodium phosphate buffer assessed as observed rate constant; type: physicochemical
[5] = biological target: T1, Human immunodeficiency virus type 1 protease; assay: Inhibition of HIV-1 protease
Protease = Protease (Human immunodeficiency virus 1, UniProt Q9YQ12, D30N); assay: Inhibition of HIV-1 protease D30N mutant
Sequence of Protease (Q9YQ12 entry or part of it D30N): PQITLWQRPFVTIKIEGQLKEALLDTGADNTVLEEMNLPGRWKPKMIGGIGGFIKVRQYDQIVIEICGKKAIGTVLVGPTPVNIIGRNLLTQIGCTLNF

Structure (SMILES)	K [1] [M⁻¹ s⁻¹]	Ki [2] [pM]	K [3]	K [4] [M⁻¹ s⁻¹]	Ki [5] [pM]	Ki (Protease) [pM]
CC(C)CN(C[C@@H](O)[C@H](Cc1ccccc1)NC(=O)O[C@H]1CO[C@H]2OCC[C@H]21)S(=O)(=O)c1ccc(B(O)O)cc1	2.4	0.5	1	0.12		
CC(C)CN(C[C@@H](O)[C@H](Cc1ccccc1)NC(=O)O[C@H]1CO[C@H]2OCC[C@H]21)S(=O)(=O)c1ccc2c(c1)C(=O)O[B-]2(O)O	0.00015		0.021	0.0026	10	7
